The values that follow come from patent publication US20260166097A1, “METHODS AND COMPOSITIONS CONCERNING BACTEROIDES OVATUS” (BOARD OF REGENTS, THE UNIVERSITY OF TEXAS SYSTEM, priority 2022, published 2026).

Data set [1] deals with allo-HSCT mice. The following applies: cited from earlier work.
Data set [2] has as its system steroid-refractory GVHD. The following applies: human, in vivo.
Source text: The inventors examined patient antibiotic treatment histories during the period from allo-HSCT to the onset of aGI-GVHD and looked for associations between treatment with various antibiotic classes and steroid response for GVHD (FIG. 3A). In our institution, quinolone, cephalosporine, carbapenem and intravenous vancomycin were frequently used in our cohort (FIG. 3B).
A total of 37 aGI-GVHD patients who underwent allo-HSCT during 2017 to 2019 at MD Anderson Cancer Center provided stool samples for the biorepository, and these patient stool samples were analyzed retrospectively as a discovery cohort. Acute GVHD was diagnosed by clinical and/or pathological findings and graded according to standard criteria^40. […] The inventors determined treatment response as previously reported^19: briefly, a lack of response on the basis of organ assessment after at least 3 days of high-dose systemic glucocorticoid therapy; a lack of improvement after 7 days; or treatment failure during steroid tapering or an inability to taper the dose to <0.5 mg/kg/day of methylprednisolone. […] As another cohort, a total of 16 aGI-GVHD patients who underwent allo-HSCT during 2017 to 2020 at MD Anderson Cancer Center provided stool samples collected on day 14 after allo-HSCT for the biorepository, and these patient stool samples were analyzed retrospectively. […]

For `O=C[C@H](O)[C@@H](O)[C@H](O)CO` [xylose], the GVHD severity result in data set [1] (supplementation in meropenem-treated allogeneic mice) is listed as “ameliorates GVHD severity”.
Take `C[C@@H](O)[C@H]1C(=O)N2C(C(=O)O)=C(S[C@@H]3CN[C@H](C(=O)N(C)C)C3)[C@H](C)[C@H]12` [meropenem]: the “Colonic GVHD severity” value in data set [1] (allo-HSCT mice treated with meropenem in drinking water compared to mice not treated) is “aggravated colonic GVHD”.
As for `CCCCCCCCCC(=O)N[C@@H](Cc1c[nH]c2ccccc12)C(=O)N[C@H](CC(N)=O)C(=O)N[C@@H](CC(=O)O)C(=O)N[C@@H]1C(=O)NCC(=O)N[C@@H](CCCN)C(=O)N[C@@H](CC(=O)O)C(=O)N[C@H](C)C(=O)N[C@@H](CC(=O)O)C(=O)NCC(=O)N[C@H](CO)C(=O)N[C@@H]([C@H](C)CC(=O)O)C(=O)N[C@@H](CC(=O)c2ccccc2N)C(=O)O[C@@H]1C` [daptomycin], in data set [2], the “Association of antibiotic exposure with steroid-refractory GVHD” value is “significantly associated with steroid-refractory GVHD”.
